Test results published in ChEMBL document CHEMBL1122267, “Pyridazinones. 3. Synthesis, antisecretory, and antiulcer activities of 2-cyanoguanidine derivatives” (1983).
The source made the active and inactive calls. No cut-off for these calls is given here.

Experiments:
Rattus norvegicus [1] = organism: Rattus norvegicus; test: Effective dose for 50 percent inhibition of gastric antisecretory activity in the 4 hr pylorus-ligated rat; format: functional; conditions: Stomach
Rattus norvegicus [2] = test: Percent inhibition of gastric antisecretory activity in the 4 hr pylorus-ligated rat to that of control at a dose of 100 mg/kg; format: functional; conditions: Stomach, read-out: Inhibition
Rattus norvegicus [3] = test: Compound was evaluated for antiulcer activity in rats due to stress after oral administration; format: functional
Rattus norvegicus [4] = test: Percent inhibition of gastric antisecretory activity in the 4 hr pylorus-ligated rat to that of control at a dose of 100 mg/kg; not statistically significant; format: functional; conditions: Stomach
Rattus norvegicus [5] = test: Compound was evaluated for antiulcer activity in rats after oral administration. (stress ulcer); NS means not statistically significant; format: functional, organism-based
Rattus norvegicus [6] = test: Compound was evaluated for antiulcer activity due to stress in rats after oral administration; not statistically significant; format: functional, organism-based

SMILES | ED50 (Rattus norvegicus [1]) [mg/kg] | inhibition in vivo at 100 mg/kg (Rattus norvegicus [2]) [%] | ED50 (Rattus norvegicus [3]) [mg/kg] | inhibition in vivo at 100 mg/kg (Rattus norvegicus [4]) [%] | ED50 (Rattus norvegicus [5]) | ED50 (Rattus norvegicus [6])
CCC/N=C(\NC#N)NCCSCn1nc(-c2ccccc2)ccc1=O | > 100 | 37.3 | 97.6 | – | – | –
C/N=C(\NC#N)NCCSCn1nc(N2CCOCC2)ccc1=O | – | – | – | -12.5 | inactive | –
C/N=C(\NC#N)NCCOCn1nc(-c2ccccc2)ccc1=O | < 82.3 | 60.6 | > 100 | – | – | –
C/N=C(\NC#N)NCCSCn1nc(N(C)C)ccc1=O | – | – | – | 6.9 | – | –
CCC/N=C(\NC#N)NCCSCCn1nc(-c2ccccc2)ccc1=O | > 100 | 33.5 | – | – | – | –
C/N=C(\NC#N)NCCSCn1nc(-c2ccccc2)ccc1=O | < 30.5 | 83.3 | 28.5 | – | – | –
CC/N=C(\NC#N)NCCSCCCn1nc(-c2ccccc2)ccc1=O | – | – | – | 22.9 | – | –
C/N=C(\NC#N)NCCSCn1nc(-c2ccc(C)cc2)ccc1=O | < 53.8 | 62.5 | – | – | – | –
C/N=C(\NC#N)NCCCCOCn1nc(-c2ccccc2)ccc1=O | > 100 | 32.8 | – | – | – | inactive
C/N=C(\NC#N)NCCSCCCn1nc(-c2ccccc2)ccc1=O | – | – | > 100 | 18.2 | – | –
C/N=C(\NC#N)NCCSCn1nc(C)ccc1=O | > 100 | 30 | > 100 | – | – | –
CC/N=C(\NC#N)NCCSCCn1nc(-c2ccccc2)ccc1=O | < 100 | 50.8 | – | – | – | –
CN/C(=N\CCSCc1nc[nH]c1C)NC#N [CIMETIDINE] | 60.3 | 80.6 | 43.2 | – | – | –
CC/N=C(\NC#N)NCCSCn1nc(C)ccc1=O | > 100 | 26.7 | – | – | – | –
C/N=C(\NC#N)NCCSCn1nc(-c2ccc(Cl)cc2)ccc1=O | < 39.1 | 70.3 | – | – | – | –
C/N=C(\NC#N)NCCSCCn1nc(-c2ccccc2)ccc1=O | < 80 | 58.3 | 77.6 | – | – | –
C/N=C(\NC#N)NCCCCn1nc(-c2ccccc2)ccc1=O | 32.4 | 79 | 38.5 | – | – | –
CC/N=C(\NC#N)NCCSCn1nc(-c2ccccc2)ccc1=O | < 100 | 50.1 | 63.1 | – | – | –
C/N=C(\NC#N)NCCCOCn1nc(-c2ccccc2)ccc1=O | < 100 | 49.8 | – | – | – | inactive
